Test results from patent publication US12295936B2, “Immunomodulating urea azalides” (Zoetis Services LLC, priority 2020, dated 2025).
≈ marks a conversion by molar mass, not a printed value.

Legend:
TNF-α = assay: LPS-stimulated whole bovine blood assay, MSD cytokine detection; format: cell-based; settings: Bos taurus, LPS-stimulated bovine whole blood; read-out: TNF-α (IC50 μM)
IL-1β = assay: as above; format: cell-based; settings: overstimulation of IL-1β, LPS-stimulated bovine whole blood
IL-6 = assay: as above; format: cell-based; settings: Bos taurus, LPS-stimulated bovine whole blood; read-out: IL-6 (IC50 μM)
Text: In order to correlate RNA sequencing data to cytokine changes the whole blood assay was utilized. […] The enhancement result represents an overall stimulation of cytokine levels due to cellular stress or potential toxicity with increasing concentrations of the compound, representing a typical bell shape response curve for immunomodulatory activity.

P. multocida 46572 = assay: In vivo mouse lung infection challenge model (murine efficacy); set-up: species or system CD-1 female mice; settings: 20 mg/kg subcutaneous, P. multocida challenge; harmonized against the comparative vehicle survival rate
Summary of the method: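 CD-1 female mice challenged intranasally with P. multocida 46572 at mid-log phase (target 5×10^2 CFU/mouse). Compounds given subcutaneously at 20 mg/kg in buffered (~pH 5.4) propylene glycol/monothioglycerol/water. Mortality observed Days 1–10, analysed by generalized mixed model; survival harmonized against vehicle survival rate.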

[1] = test system: BRD pathogens, M. haemolytica and P. multocida; assay: MIC screening panel of BRD pathogens (antibacterial / non-antibacterial); settings: read-out: antibacterial / non-antibacterial (MIC for the BRD pathogens)
P. multocida = assay: Murine P. multocida intranasal challenge study with lung tissue RNA sequence analysis; format: in vivo, mice; settings: subcutaneous 18 hours after challenge (5×10^3 CFU/mouse): tulathromycin 16 mg/kg, M9 32 mg/kg, ceftiofur 9 mg/kg; placebo 0%
Experimental: In one murine P. multocida intranasal challenge study, mice were administered tulathromycin (16 mg/kg; T02), M9 (32 mg/kg; T03), or ceftiofur (9 mg/kg; T04) by subcutaneous injection 18 hours after bacterial challenge (5×10^3 CFU/mouse) for lung tissue RNA sequence analysis. Survival at Day 7 was about 80%, 50%, and 90% for T02, T03, and T04, respectively, compared to placebo at 0%. Differential gene expression from total lung tissue RNA sequence analysis indicated at least 226 unique genes were up or down regulated (with significance) for T03. Output from ingenuity pathway analysis of these unique genes predicted major upstream regulators of the involved pathways. Data was analyzed based on the number of genes being modulated in the same direction that were associated with a given upstream regulator. An activation z-score of 2 or greater is considered significant and the direction change is indicated by +(activated) or − (inhibited). The top 5 pathways included: IL-9 signaling, glucocorticoid receptor signaling, prolactin signaling, JAK STAT signaling, and IL-17 signaling. The top 6 upstream regulators (activation z-score) included: lipopolysaccharide (−6.725), TNF (−4.669), IFNG (−5.759), IL-1β (−5.947), STAT1 (−2.787), and poly rl:rC-RNA (−5.289). Even though this study was run in the murine model, the top upstream regulators identified as being modulated by M9 include an almost ubiquitous overlap with the pathways identified in the natural disease study as being key mediators in BRD, and therefore is modulating highly relevant pathways in BRD pathobiology.

H. somni = assay: In-vitro MIC model (CLSI broth micro-dilution); settings: Histophilus somni

CCCNC[C@]1(O)[C@H](C)O[C@@H](O[C@H]2[C@H](C)[C@@H](O[C@@H]3O[C@H](C)C[C@H](N(Cc4ccc(OC)cc4)C(=O)N(C)c4ccccc4)[C@H]3O)[C@](C)(O)C[C@@H](C)CN[C@H](C)[C@@H](O)[C@](C)(O)[C@@H](CC)OC(=O)[C@@H]2C)C[C@@]1(C)OC [Example H-60, 1-((2S,3R,4S,6R)-2-(((2R,3S,4R,5R,8R,10R,11R,12S,13S,14R)-2-ethyl-3,4,10-trihydroxy-13-(((2R,4R,5S,6S)-5-hydroxy-4-methoxy-4,6-dimethyl-5-((propylamino)methyl)tetrahydro-2H-pyran-2-yl)oxy)-3,5,8,10,12,14-hexamethyl-15-oxo-1-oxa-6-azacyclopentadecan-11-yl)oxy)-3-hydroxy-6-methyltetrahydro-2H-pyran-4-yl)-1-(4-methoxybenzyl)-3-methyl-3-phenylurea]
IC50 (TNF-α): 5 µM | IL-1β OS of LPS (IL-1β): 3 µM | IC50 (IL-6): 7 µM | Mouse Murine Percent Survival (P. multocida 46572): 72% | MIC [1]: > 64 µg/mL

CCCNC[C@]1(O)[C@H](C)O[C@@H](O[C@H]2[C@H](C)[C@@H](O[C@@H]3O[C@H](C)C[C@H](N(C)C(=O)N(c4ccccc4)c4ccccc4)[C@H]3O)[C@](C)(O)C[C@@H](C)CN[C@H](C)[C@@H](O)[C@](C)(O)[C@@H](CC)OC(=O)[C@@H]2C)C[C@@]1(C)OC [Example H-39, 1-((2S,3R,4S,6R)-2-(((2R,3S,4R,5R,8R,10R,11R,12S,13S,14R)-2-ethyl-3,4,10-trihydroxy-13-(((2R,4R,5S,6S)-5-hydroxy-4-methoxy-4,6-dimethyl-5-((propylamino)methyl)tetrahydro-2H-pyran-2-yl)oxy)-3,5,8,10,12,14-hexamethyl-15-oxo-1-oxa-6-azacyclopentadecan-11-yl)oxy)-3-hydroxy-6-methyltetrahydro-2H-pyran-4-yl)-1-methyl-3,3-diphenylurea]
IC50 (TNF-α): 21 µM | IL-1β OS of LPS (IL-1β): 6 µM | IC50 (IL-6): 19 µM | Mouse Murine Percent Survival (P. multocida 46572): 44% | MIC [1]: > 64 µg/mL

CO/N=C(\C(=O)N[C@@H]1C(=O)N2C(C(=O)O)=C(CSC(=O)c3ccco3)CS[C@H]12)c1csc(N)n1 [ceftiofur]
Survival at Day 7 (P. multocida): ~90%

CCCNC[C@]1(O)[C@H](C)O[C@@H](O[C@H]2[C@H](C)[C@@H](O[C@@H]3O[C@H](C)C[C@H](N(C)C(=O)N(C)c4ccc(C(F)(F)F)cc4)[C@H]3O)[C@](C)(O)C[C@@H](C)CN[C@H](C)[C@@H](O)[C@](C)(O)[C@@H](CC)OC(=O)[C@@H]2C)C[C@@]1(C)OC [Example H-13, 1-((2S,3R,4S,6R)-2-(((2R,3S,4R,5R,8R,10R,11R,12S,13S,14R)-2-ethyl-3,4,10-trihydroxy-13-(((2R,4R,5S,6S)-5-hydroxy-4-methoxy-4,6-dimethyl-5-((propylamino)methyl)tetrahydro-2H-pyran-2-yl)oxy)-3,5,8,10,12,14-hexamethyl-15-oxo-1-oxa-6-azacyclopentadecan-11-yl)oxy)-3-hydroxy-6-methyltetrahydro-2H-pyran-4-yl)-1,3-dimethyl-3-(4-(trifluoromethyl)phenyl)urea]
IC50 (TNF-α): 12 µM | IL-1β OS of LPS (IL-1β): 6 µM | IC50 (IL-6): 9 µM | Mouse Murine Percent Survival (P. multocida 46572): 59% | MIC [1]: > 64 µg/mL

CCN1CCN(c2cc3c(cc2F)c(=O)c(C(=O)O)cn3C2CC2)CC1 [enrofloxacin]
MIC (H. somni): 0.06 to 1 µg/mL (≈ 0.167 to 2.78 µM)

CCCNC[C@]1(O)[C@H](C)O[C@@H](O[C@H]2[C@H](C)[C@@H](O[C@@H]3O[C@H](C)C[C@H](N(C)C(=O)N(C)c4ccc(C(F)(F)F)cc4)[C@H]3O)[C@](C)(O)C[C@@H](C)CN(C)[C@H](C)[C@@H](O)[C@](C)(O)[C@@H](CC)OC(=O)[C@@H]2C)C[C@@]1(C)OC [Example H-100, 1-((2S,3R,4S,6R)-2-(((2R,3S,4R,5R,8R,10R,11R,12S,13S,14R)-2-ethyl-3,4,10-trihydroxy-13-(((2R,4R,5S,6S)-5-hydroxy-4-methoxy-4,6-dimethyl-5-((propylamino)methyl)tetrahydro-2H-pyran-2-yl)oxy)-3,5,6,8,10,12,14-heptamethyl-15-oxo-1-oxa-6-azacyclopentadecan-11-yl)oxy)-3-hydroxy-6-methyltetrahydro-2H-pyran-4-yl)-1,3-dimethyl-3-(4-(trifluoromethyl)phenyl)urea]
IC50 (TNF-α): 6 µM | IL-1β OS of LPS (IL-1β): 16 µM | IC50 (IL-6): 10 µM | Mouse Murine Percent Survival (P. multocida 46572): 19% | MIC [1]: > 64 µg/mL

CC[C@H]1OC(=O)[C@H](C)[C@@H](O[C@H]2C[C@@](C)(OC)[C@@](C)(O)[C@H](C)O2)[C@H](C)[C@@H](O[C@@H]2O[C@H](C)C[C@H](N(C)C(=O)N(C)c3ccc(C(F)(F)F)cc3)[C@H]2O)[C@](C)(O)C[C@@H](C)CN[C@H](C)[C@@H](O)[C@]1(C)O [Example B-13, 1-((2S,3R,4S,6R)-2-(((2R,3S,4R,5R,8R,10R,11R,12S,13S,14R)-2-ethyl-3,4,10-trihydroxy-13-(((2R,4R,5S,6S)-5-hydroxy-4-methoxy-4,5,6-trimethyltetrahydro-2H-pyran-2-yl)oxy)-3,5,8,10,12,14-hexamethyl-15-oxo-1-oxa-6-azacyclopentadecan-11-yl)oxy)-3-hydroxy-6-methyltetrahydro-2H-pyran-4-yl)-1,3-dimethyl-3-(4-(trifluoromethyl)phenyl)urea]
IC50 (TNF-α): 14 µM | IL-1β OS of LPS (IL-1β): 16 µM | IC50 (IL-6): 51 µM | Mouse Murine Percent Survival (P. multocida 46572): 48% | MIC [1]: > 64 µg/mL

CC[C@H]1OC(=O)[C@H](C)[C@@H](O[C@H]2C[C@@](C)(OC)[C@](O)(CN3CC(N4CCOCC4)C3)[C@H](C)O2)[C@H](C)[C@@H](O[C@@H]2O[C@H](C)C[C@H](N(C)C(=O)N(C)c3ccccc3)[C@H]2O)[C@](C)(O)C[C@@H](C)CN[C@H](C)[C@@H](O)[C@]1(C)O [Example J-4, 1-((2S,3R,4S,6R)-2-(((2R,3S,4R,5R,8R,10R,11R,12S,13S,14R)-2-ethyl-3,4,10-trihydroxy-13-(((2R,4R,5S,6S)-5-hydroxy-4-methoxy-4,6-dimethyl-5-((3-morpholinoazetidin-1-yl)methyl)tetrahydro-2H-pyran-2-yl)oxy)-3,5,8,10,12,14-hexamethyl-15-oxo-1-oxa-6-azacyclopentadecan-11-yl)oxy)-3-hydroxy-6-methyltetrahydro-2H-pyran-4-yl)-1,3-dimethyl-3-phenylurea]
IC50 (TNF-α): 7 µM | IL-1β OS of LPS (IL-1β): 1 µM | IC50 (IL-6): 3 µM | Mouse Murine Percent Survival (P. multocida 46572): 5% | MIC [1]: > 64 µg/mL

CS(=O)(=O)c1ccc([C@@H](O)[C@@H](CF)NC(=O)C(Cl)Cl)cc1 [florfenicol]
MIC (H. somni): 0.12 to 2 µg/mL (≈ 0.335 to 5.58 µM)

CCCNC[C@]1(O)[C@H](C)O[C@@H](O[C@H]2[C@H](C)[C@@H](O[C@@H]3O[C@H](C)C[C@H](N(C)C(=O)Nc4cccnc4)[C@H]3O)[C@](C)(O)C[C@@H](C)CN[C@H](C)[C@@H](O)[C@](C)(O)[C@@H](CC)OC(=O)[C@@H]2C)C[C@@]1(C)OC [Example H-72, 1-((2S,3R,4S,6R)-2-(((2R,3S,4R,5R,8R,10R,11R,12S,13S,14R)-2-ethyl-3,4,10-trihydroxy-13-(((2R,4R,5S,6S)-5-hydroxy-4-methoxy-4,6-dimethyl-5-((propylamino)methyl)tetrahydro-2H-pyran-2-yl)oxy)-3,5,8,10,12,14-hexamethyl-15-oxo-1-oxa-6-azacyclopentadecan-11-yl)oxy)-3-hydroxy-6-methyltetrahydro-2H-pyran-4-yl)-1-methyl-3-(pyridin-3-yl)urea]
IC50 (TNF-α): > 500 µM | IL-1β OS of LPS (IL-1β): >500 µM | IC50 (IL-6): > 500 µM | Mouse Murine Percent Survival (P. multocida 46572): 4%
